Measurements as given in patent US7612104B2, “Bicyclic aryl-sulfonic acid [1,3,4]-thiadiazol-2-yl-amides, processes for their preparation, pharmaceutical compositions and methods for their use” (Sanofi-Aventis, priority 2005, dated 2009).
pEC50: −log10 of the molar value.

Target: T1, human PPARgamma (Homo sapiens, UniProt P37231)
T1 construct: amino acids I152-Y475; expressed in transfected cells; host or cells: HEK cells, transiently transfected (pcDNA3-GAL4-humanPPARgammaLBD)
T1 sequence (P37231 182-477 isoform P37231-2 limits assumed): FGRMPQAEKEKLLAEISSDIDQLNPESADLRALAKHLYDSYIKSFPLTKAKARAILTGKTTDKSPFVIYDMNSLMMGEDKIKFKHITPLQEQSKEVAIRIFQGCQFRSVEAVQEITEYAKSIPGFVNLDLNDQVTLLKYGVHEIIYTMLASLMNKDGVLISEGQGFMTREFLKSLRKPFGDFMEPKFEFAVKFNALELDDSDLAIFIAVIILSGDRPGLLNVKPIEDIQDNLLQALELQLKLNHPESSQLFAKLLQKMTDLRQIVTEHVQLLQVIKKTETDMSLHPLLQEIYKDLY
Experiment: Cellular PPARgamma assay (transiently transfected HEK cells, luciferase reporter)
Assay type: cell-based
Conditions: HEK cells transiently transfected with GAL4-humanPPARgammaLBD
Text: A transient transfection system is employed to determine the cellular PPARgamma activity of PPAR agonists. It is based on the use of a luciferase reporter plasmid (pGL3basic-5xGAL4-TK) and of a PPARgamma expression plasmid (pcDNA3-GAL4-humanPPARgammaLBD). Both plasmids are transiently transfected into human embryonic kidney cells (HEK cells). There is then expression in these cells of the fusion protein GAL4-humanPPARgammaLBD which binds to the GAL4 binding sites of the reporter plasmid. In the presence of a PPARgamma-active ligand, the activated fusion protein GAL4-humanPPARgammaLBD induces expression of the luciferase reporter gene, which can be detected in the form of a chemiluminescence signal after addition of a luciferase substrate. As a difference from the stably transfected PPARalpha reporter cell line, in the cellular PPARgamma assay the two components (luciferase reporter plasmid and PPARgamma expression plasmid) are transiently transfected into HEK cells because stable and permanent expression of the PPARgamma fusion protein is cytotoxic.
The luciferase reporter plasmid pGL3basic-5xGAL4-TK is based on the vector pGL3basic from Promega. The reporter plasmid is prepared by cloning five binding sites of the yeast transcription factor GAL4 (each binding site with the sequence 5′-CTCGGAGGACAGTACTCCG-3′), together with a 160 bp-long thymidine kinase promoter section (Genbank Accession #AF027128) 5′-upstream into pGL3basic. 3′-downstream of the thymidine kinase promoter is the complete luciferase gene from Photinus pyralis (Genbank Accession #M15077) which is already a constituent of the plasmid pGL3basic used. The cloning and sequencing of the reporter plasmid pGL3basic-5xGAL4-TK took place in analogy to the description in Sambrook J. et. al. (Molecular cloning, Cold Spring Harbor Laboratory Press, 1989).
The PPARgamma expression plasmid pcDNA3-GAL4-humanPPARgammaLBD was prepared by first cloning the cDNA coding for amino acids 1-147 of the yeast transcription factor GAL4 (Genbank Accession #P04386) into the plasmid pcDNA3 (from Invitrogen) 3′-downstream of the cytomegalovirus promoter. Subsequently, the cDNA of the ligand-binding domain (LBD) of the human PPARgamma receptor (amino acids I152-Y475; Accession #g1480099) 3′-downstream of the GAL4 DNA binding domain. Cloning and sequencing of the PPARgamma expression plasmid pcDNA3-GAL4-humanPPARgammaLBD again took place in analogy to the description in Sambrook J. et. al. (Molecular cloning, Cold Spring Harbor Laboratory Press, 1989). Besides the luciferase reporter plasmid pGL3basic-5xGAL4-TK and the PPARgamma expression plasmid pcDNA3-GAL4-humanPPARgammaLBD, also used for the cellular PPARgamma assay are the reference plasmid pRL-CMV (from Promega) and the plasmid pBluescript SK(+) from Stratagene. All four plasmids were prepared using a plasmid preparation kit from Qiagen, which ensured a plasmid quality with a minimal endotoxin content, before transfection into HEK cells.
The activity of PPARgamma agonists is determined in a 4-day assay which is described below. Before the transfection, HEK cells are cultivated in DMEM (#41965-039, Invitrogen) which is mixed with the following additions: 10% FCS (#16000-044, Invitrogen), 1% penicillin-streptomycin solution (#15140-122, Invitrogen) and 2 mM L-glutamine (#25030-024, Invitrogen).
Firstly, solution A, a transfection mixture which contains all four plasmids previously described in addition to DMEM, is prepared. The following amounts are used to make up 3 ml of solution A for each 96 well microtiter plate for an assay: 2622 μl of antibiotic- and serum-free DMEM (#41965-039, Invitrogen), 100 μl of reference plasmid pRL-CMV (1 ng/μl), 100 μl of luciferase reporter plasmid pGL3basic-5xGAL4-TK (10 ng/μl), 100 μl of PPARgamma expression plasmid pcDNA3-GAL4-humanPPARgammaLBD (100 ng/μl) and 78 μl of plasmid pBluescript SK(+) (500 ng/μl). […]

SMILES	pEC50
CCOc1cc(C(F)(F)F)ccc1C(=O)NC1Cc2ccc(S(=O)(=O)Nc3nnc(C(C)C)s3)cc2C1 (single isomer, unassigned; enantiomer 2) [Example 1.2, 2-Ethoxy-N-[5-(5-isopropyl-[1,3,4]thiadiazol-2-ylsulfamoyl)-indan-2-yl]-4-trifluoromethyl-benzamide (Enantiomer 2)]	< 5.00
CCOc1cc(C(F)(F)F)ccc1C(=O)N[C@@H]1CCc2ccc(S(=O)(=O)Nc3nnc(C(C)C)s3)cc2C1 [Example 6, 2-Ethoxi-N-[(R)-7-(5-isopropyl-[1,3,4]thiadiazol-2-ylsulfamoyl)-1,2,3,4-tetrahydro-naphthalene-2-yl]-4-trifluoromethyl-benzamide]	6.70
CCOc1cc(C(F)(F)F)sc1C(=O)NC1Cc2ccc(S(=O)(=O)Nc3nnc(C(C)C)s3)cc2C1 (stereo not drawn) [Example 11, 3-Ethoxy-5-trifluoromethyl-thiophene-2-carboxylic acid [5-(5-isopropyl-[1,3,4]thiadiazol-2-ylsulfamoyl)-indan-2-yl]-amide]	< 5.00

Compounds with a higher pEC50, results first:

pEC50	SMILES
7.00	CCOc1cc(C(F)(F)F)ccc1C(=O)N[C@H]1CCc2ccc(S(=O)(=O)Nc3nnc(C(C)C)s3)cc2C1 [Example 5, 2-Ethoxy-N-[(S)-7-(5-isopropyl-[1,3,4]thiadiazol-2-ylsulfamoyl)-1,2,3,4-tetrahydro-naphthalen-2-yl]-4-trifluoromethyl-benzamide]
7.66	CCOc1cc(C(F)(F)F)ccc1C(=O)NC1Cc2ccc(S(=O)(=O)Nc3nnc(C(C)C)s3)cc2C1 (single isomer, unassigned; enantiomer 1) [Example 1.1, 2-Ethoxy-N-[5-(5-isopropyl-[1,3,4]thiadiazol-2-ylsulfamoyl)-indan-2-yl]-4-trifluoromethyl-benzamide (Enantiomer 1)]
9.00	CCOc1cc(C(F)(F)F)ccc1C(=O)NC1Cc2ccc(S(=O)(=O)Nc3nnc(C(C)C)s3)cc2C1 (racemic) [Example 1, 2-Ethoxy-N-[5-(5-isopropyl-[1,3,4]thiadiazol-2-ylsulfamoyl)-indan-2-yl]-4-trifluoromethyl-benzamide]
